In patent US8653100B2 (AbbVie Inc., priority 2008, dated 2014) one finds Ki data, which are given here for 24 molecules.

SMILES strings stand for the structures. Structures can show the parent of a compound that is named as a salt.

human GlyT1c transporter, sequence (P48067 whole entry): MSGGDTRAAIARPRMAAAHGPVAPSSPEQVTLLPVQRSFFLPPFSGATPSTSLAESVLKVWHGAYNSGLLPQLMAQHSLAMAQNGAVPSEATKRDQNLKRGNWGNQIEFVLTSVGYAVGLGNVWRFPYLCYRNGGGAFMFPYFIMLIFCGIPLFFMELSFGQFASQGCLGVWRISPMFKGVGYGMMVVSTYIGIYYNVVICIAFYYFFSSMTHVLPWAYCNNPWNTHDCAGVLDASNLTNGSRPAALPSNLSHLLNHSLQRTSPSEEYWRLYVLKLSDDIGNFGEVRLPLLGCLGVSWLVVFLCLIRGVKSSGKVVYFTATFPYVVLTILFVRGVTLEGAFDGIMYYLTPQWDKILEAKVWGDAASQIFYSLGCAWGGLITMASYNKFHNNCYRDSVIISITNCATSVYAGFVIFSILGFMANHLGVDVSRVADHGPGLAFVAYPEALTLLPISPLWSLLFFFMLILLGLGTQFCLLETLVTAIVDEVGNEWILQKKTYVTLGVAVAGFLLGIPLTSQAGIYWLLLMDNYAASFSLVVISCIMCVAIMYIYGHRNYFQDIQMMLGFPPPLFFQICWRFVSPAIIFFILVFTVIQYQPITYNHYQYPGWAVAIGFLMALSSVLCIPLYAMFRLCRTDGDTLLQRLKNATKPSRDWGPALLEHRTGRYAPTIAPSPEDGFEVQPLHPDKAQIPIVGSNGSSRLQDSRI

In the test the target is human GlyT1c transporter (Homo sapiens (Human), UniProt P48067). Nature of the test: Radioligand binding assay using recombinant CHO cell membranes expressing human GlyT1. Conditions: examples 88-204, radioligand not specified by footnote, read-out: radioligand binding Kiapp. Here is the method:
2. Radioligand binding assays using recombinant CHO cell membranes expressing human GlyT1:
Radioligand binding to human GlyT1c transporter-expressing membranes was carried out as described in Mezler et al., Molecular Pharmacology 74:1705-1715, 2008.
More specifically, [^3H]-(R)-NPTS radioligand binding to human GlyT1c transporter-expressing membranes was measured in duplicate in a total volume of 200 μl in 96-well plates. To 100 μl of membrane suspension (yielding a final membrane protein concentration of 50 μg/ml) in assay buffer (120 mM NaCl, 2 mM KCl, 10 mM Hepes, 1 mM MgCl2, 1 mM CaCl2, pH 7.5) […] of [^3H]-(R)-NPTS (0.5 nM final) were added in assay buffer. For competition experiments 10 μl of buffer or unlabeled compound solution obtained from dilution series of test compounds in DMSO followed. An intermediate 1:10 dilution in assay buffer yielded a final DMSO concentration of 1%. Non-specific binding was determined in the presence of 10 μM Org24598 (or its racemate Org24461) for [^3H]-(R)-NPTS. After incubation at room temperature for 1 h, the incubation mixture was harvested (Tomtec Mach III U Harvester) through 96-well GF/B filter plates (PerkinElmer), presoaked for 1 h with 40 μl per well of 0.1% polyethylene-imine (PEI). After washing twice with ice-cold 50 mM Tris-HCl pH 7.4 buffer, drying and addition of 35 μl scintillator (BetaplateScint, PerkinElmer) per well followed. The radioactivity was determined by liquid scintillation spectrometry in a MicroBeta (PerkinElmer) plate counter.
Data analysis: For binding of [^3H]-(R)-NPTS to cell membranes, the calculation of Kd and Bmax values from the saturation binding assays and the IC50 values from the displacement binding was performed by iterative non-linear regression analysis adapted from the ‘Ligand’ program (Munson and Rodbard, 1980). Radioligand displacement curves in absence or in presence of increasing concentrations of tested compounds were fitted using a one-site fit and the apparent Ki values were calculated from the IC50 values using the Cheng-Prusoff equation (Cheng and Prusoff 1973).
With `Nc1ccc(S(=O)(=O)NCCOc2ccc3c(c2)C(C2(c4ccc(Cl)cc4)CCC2)NCC3)cc1` (stereo not drawn) [Example 147, 4-Amino-N-[2-({1-[1-(4-chlorophenyl)cyclobutyl]-1,2,3,4-tetrahydroisoquinolin-7-yl}oxy)ethyl]benzenesulfonamide dihydrochloride], the Ki is at most 0.1 µM. The result for `CN(C)CCS(=O)(=O)NCCOc1ccc2c(c1)C(C1(c3ccc(Cl)cc3)CCC1)NCC2` (stereo not drawn) [Example 149, N-[2-({1-[1-(4-Chlorophenyl)cyclobutyl]-1,2,3,4-tetrahydroisoquinolin-7-yl}oxy)ethyl]-2-(dimethylamino)ethanesulfonamide (2E)-but-2-enedioate] reads at most 0.1 µM. The result for `Nc1ncc(S(=O)(=O)NCCOc2ccc3c(c2)C(C2(c4ccc(Cl)cc4)CCC2)NCC3)cn1` (stereo not drawn) [Example 150, 2-Amino-N-[2-({1-[1-(4-chlorophenyl)cyclobutyl]-1,2,3,4-tetrahydroisoquinolin-7-yl}oxy)ethyl]pyrimidine-5-sulfonamide] reads at most 0.1 µM. Next, `O=S(=O)(NCCOc1ccc2c(c1)C(C1(c3ccc(Cl)cc3)CCC1)NCC2)c1cn[nH]c1` (stereo not drawn) [Example 153, N-[2-({1-[1-(4-Chlorophenyl)cyclobutyl]-1,2,3,4-tetrahydroisoquinolin-7-yl}oxy)ethyl]-1H-pyrazole-4-sulfonamide hydrochloride]: at most 0.1 µM; `COc1ccc(S(=O)(=O)NCCOc2ccc3c(c2)C(C2(c4ccc(Cl)cc4)CCC2)NCC3)cn1` (stereo not drawn) [Example 156, N-[2-({1-[1-(4-Chlorophenyl)cyclobutyl]-1,2,3,4-tetrahydroisoquinolin-7-yl}oxy)ethyl]-6-methoxypyridine-3-sulfonamide hydrochloride]: at most 0.1 µM. As to `Nc1cccc(S(=O)(=O)NCCOc2ccc3c(c2)C(C2(c4ccc(Cl)cc4)CCC2)NCC3)c1` (stereo not drawn) [Example 157, 3-Amino-N-[2-({1-[1-(4-chlorophenyl)cyclobutyl]-1,2,3,4-tetrahydroisoquinolin-7-yl}oxy)ethyl]benzenesulfonamide dihydrochloride], the Ki was at most 0.1 µM. `O=S(=O)(NCCOc1ccc2c(c1)C(C1(c3ccc(Cl)cc3)CCC1)NCC2)C1CCNC1` (stereo not drawn) [Example 159, N-[2-({1-[1-(4-Chlorophenyl)cyclobutyl]-1,2,3,4-tetrahydroisoquinolin-7-yl}oxy)ethyl]pyrrolidine-3-sulfonamide dihydrochloride]: the Ki is at most 0.1 µM. The result for `O=S(=O)(CCN1CCCCC1)NCCOc1ccc2c(c1)C(C1(c3ccc(Cl)cc3)CCC1)NCC2` (stereo not drawn) [Example 161, N-[2-({1-[1-(4-Chlorophenyl)cyclobutyl]-1,2,3,4-tetrahydroisoquinolin-7-yl}oxy)ethyl]-2-(piperidin-1-yl)ethanesulfonamide (2E)-but-2-enedioate] reads at most 1 µM; that for `CNc1nnc(S(=O)(=O)NCCOc2ccc3c(c2)C(C2(c4ccc(Cl)cc4)CCC2)NCC3)s1` (stereo not drawn) [Example 162, N-[2-({1-[1-(4-Chlorophenyl)cyclobutyl]-1,2,3,4-tetrahydroisoquinolin-7-yl}oxy)ethyl]-5-(methylamino)-1,3,4-thiadiazole-2-sulfonamide hydrochloride], at most 1 µM. Turning to `Nc1ncc(S(=O)(=O)NCCOc2ccc3c(c2)C(C2(c4ccc(Cl)cc4)CCC2)NCC3)s1` (stereo not drawn) [Example 163, 2-Amino-N-[2-({1-[1-(4-chlorophenyl)cyclobutyl]-1,2,3,4-tetrahydroisoquinolin-7-yl}oxy)ethyl]-1,3-thiazole-5-sulfonamide dihydrochloride], the Ki is at most 1 µM. Turning to `O=S(=O)(NCCOc1ccc2c(c1)C(C1(c3ccc(Cl)cc3)CCC1)NCC2)C1CNC1` (stereo not drawn) [Example 166, N-[2-({1-[1-(4-Chlorophenyl)cyclobutyl]-1,2,3,4-tetrahydroisoquinolin-7-yl}oxy)ethyl]azetidine-3-sulfonamide (2E)-but-2-enedioate], the Ki was at most 1 µM.

Turning to `CC(C)NCCS(=O)(=O)NCCOc1ccc2c(c1)C(C1(c3ccc(Cl)cc3)CCC1)NCC2` (stereo not drawn) [Example 169, N-[2-({1-[1-(4-Chlorophenyl)cyclobutyl]-1,2,3,4-tetrahydroisoquinolin-7-yl}oxy)ethyl]-2-(propan-2-ylamino)ethanesulfonamide], the Ki is at most 1 µM. As to `O=C(OCc1ccccc1)N1CCC(S(=O)(=O)NCCOc2ccc3c(c2)C(C2(c4ccc(Cl)cc4)CCC2)NCC3)C1` (stereo not drawn) [Example 170, Benzyl 3-{[2-({1-[1-(4-chlorophenyl)cyclobutyl]-1,2,3,4-tetrahydroisoquinolin-7-yl}oxy)ethyl]sulfamoyl}pyrrolidine-1-carboxylate], the Ki is at most 1 µM. The result for `CCCS(=O)(=O)NCCOc1ccc2c(c1)C(C1(c3ccc(Cl)cc3)CCC1)N(C(C)=O)CC2` (stereo not drawn) [Example 171, N-[2-({2-Acetyl-1-[1-(4-chlorophenyl)cyclobutyl]-1,2,3,4-tetrahydroisoquinolin-7-yl}oxy)ethyl]propane-1-sulfonamide] reads at most 10 µM; that for `O=S(=O)(NCCOc1ccc2c(c1)C(C1(c3ccc(Cl)cc3)CCC1)NCC2)c1ccc(Oc2ccccc2)nc1` (stereo not drawn) [Example 173, N-[2-({1-[1-(4-Chlorophenyl)cyclobutyl]-1,2,3,4-tetrahydroisoquinolin-7-yl}oxy)ethyl]-6-phenoxypyridine-3-sulfonamide hydrochloride], at most 10 µM. In the case of `CCCS(=O)(=O)N(CCN)CCOc1ccc2c(c1)C(C1(c3ccc(Cl)cc3)CCC1)NCC2` (stereo not drawn) [Example 174, N-(2-Aminoethyl)-N-[2-({1-[1-(4-chlorophenyl)cyclobutyl]-1,2,3,4-tetrahydroisoquinolin-7-yl}oxy)ethyl]propane-1-sulfonamide dihydrochloride], the Ki was at most 10 µM. Consider `O=S(=O)(NCCOc1ccc2c(c1)C(C1(c3ccc(Cl)cc3)CCC1)NCC2)C1CCN(Cc2ccccc2)CC1` (stereo not drawn) [Example 177, 1-Benzyl-N-[2-({1-[1-(4-chlorophenyl)cyclobutyl]-1,2,3,4-tetrahydroisoquinolin-7-yl}oxy)ethyl]piperidine-4-sulfonamide hydrochloride], for which the Ki is at most 10 µM.

Take `CNCCCS(=O)(=O)NCCOc1ccc2c(c1)C(C1(c3ccc(Cl)cc3)CCC1)NCC2` (stereo not drawn) [Example 178, N-[2-({1-[1-(4-Chlorophenyl)cyclobutyl]-1,2,3,4-tetrahydroisoquinolin-7-yl}oxy)ethyl]-3-(methylamino)propane-1-sulfonamide (2E)-but-2-enedioate]: the Ki is at most 10 µM.

Turning to `CC(=O)N1CC(S(=O)(=O)NCCOc2ccc3c(c2)C(C2(c4ccc(Cl)cc4)CCC2)NCC3)C1` (stereo not drawn) [Example 180, 1-Acetyl-N-[2-({1-[1-(4-chlorophenyl)cyclobutyl]-1,2,3,4-tetrahydroisoquinolin-7-yl}oxy)ethyl]azetidine-3-sulfonamide di[(2E)-but-2-enedioate]], the Ki is at most 10 µM.

With `NCCCCS(=O)(=O)NCCOc1ccc2c(c1)C(C1(c3ccc(Cl)cc3)CCC1)NCC2` (stereo not drawn) [Example 184, 4-Amino-N-[2-({1-[1-(4-chlorophenyl)cyclobutyl]-1,2,3,4-tetrahydroisoquinolin-7-yl}oxy)ethyl]butane-1-sulfonamide (2E)-but-2-enedioate], the Ki is at most 10 µM. As to `CN1CCOc2cc(S(=O)(=O)NCCOc3ccc4c(c3)C(C3(c5ccc(Cl)cc5)CCC3)NCC4)cnc21` (stereo not drawn) [Example 185, N-[2-({1-[1-(4-Chlorophenyl)cyclobutyl]-1,2,3,4-tetrahydroisoquinolin-7-yl}oxy)ethyl]-4-methyl-3,4-dihydro-2H-pyrido[3,2-b][1,4]oxazine-7-sulfonamide hydrochloride], the Ki was at most 10 µM. As to `CC(=O)Nc1ncc(S(=O)(=O)NCCOc2ccc3c(c2)C(C2(c4ccc(Cl)cc4)CCC2)NCC3)s1` (stereo not drawn) [Example 188, N-(5-{[2-({1-[1-(4-Chlorophenyl)cyclobutyl]-1,2,3,4-tetrahydroisoquinolin-7-yl}oxy)ethyl]sulfamoyl}-1,3-thiazol-2-yl)acetamide hydrochloride], the Ki was at most 10 µM. Next, `O=S(=O)(NCCOc1ccc2c(c1)C(C1(c3ccc(Cl)cc3)CCC1)NCC2)c1ccc(N2CCOCC2)nc1` (stereo not drawn) [Example 189, N-[2-({1-[1-(4-Chlorophenyl)cyclobutyl]-1,2,3,4-tetrahydroisoquinolin-7-yl}oxy)ethyl]-6-(morpholin-4-yl)pyridine-3-sulfonamide hydrochloride]: at most 10 µM.

Take `O=S(=O)(NCCOc1ccc2c(c1)C(C1(c3ccc(Cl)cc3)CCC1)NCC2)C1CCNCC1` (stereo not drawn) [Example 190, N-[2-({1-[1-(4-Chlorophenyl)cyclobutyl]-1,2,3,4-tetrahydroisoquinolin-7-yl}oxy)ethyl]piperidine-4-sulfonamide dihydrochloride]: the Ki was at most 10 µM.
